Assay results taken from the supplement of paper PMC10307832.

Columns and labels:
[1] = compound: CC1(C)CNc2cc(NC(=O)c3cccnc3NCc3ccncc3)ccc21 [Motesanib] + CC(=O)Nc1cccc(-n2c(=O)n(C3CC3)c(=O)c3c(Nc4ccc(I)cc4F)n(C)c(=O)c(C)c32)c1 [Trametinib] (partner 0.02 µM); assay: relative viability (nuclei count vs DMSO), 5 days (fraction); higher = more cells survive
Outline: (§1)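 For relative viability, nuclei counts in treated wells were divided by those in vehicle wells. Lung cancer cell lines had been pin-tool dosed in 1536-well plates the day after seeding and cultured for 5 days, then fixed and stained in one step (final 0.05% Triton X-100, 1% formaldehyde, 1 ug/ml Hoechst) and imaged at 4×. Doses were one drug alone or a fixed anchor-drug dose plus five library-drug doses (not always all listed) in √10 steps, and values are duplicate-plate medians.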

[2] = compound: C[C@@]1(C(=O)Nc2ccc(F)nc2)CCCN1c1nc(Nc2cc(C3CC3)n[nH]2)c2cccn2n1 + Cc1nc(Nc2ncc(C(=O)Nc3c(C)cccc3Cl)s2)cc(N2CCN(CCO)CC2)n1 [Dasatinib] (partner 0.075 µM); assay: as above
Outline: as §1

HCC-44
relative viability ([1]; first compound 0.01 µM): 1.01 | relative viability ([1]; first compound 0.03162 µM): 1.06 | relative viability ([1]; first compound 0.1 µM): 1.05 | relative viability ([1]; first compound 0.3162 µM): 1.12 | relative viability ([1]; first compound 1 µM): 1.19

HCC-827
relative viability ([1]; first compound 0.01 µM): 0.442 | relative viability ([1]; first compound 0.03162 µM): 0.593 | relative viability ([1]; first compound 0.1 µM): 0.505 | relative viability ([1]; first compound 0.3162 µM): 0.541 | relative viability ([1]; first compound 1 µM): 0.623 | relative viability ([2]; first compound 0.04 µM): 0.34 | relative viability ([2]; first compound 0.1265 µM): 0.395 | relative viability ([2]; first compound 0.4 µM): 0.222 | relative viability ([2]; first compound 1.265 µM): 0.339

NCI-H1623
relative viability ([2]; first compound 0.04 µM): 0.465 | relative viability ([2]; first compound 0.1265 µM): 0.247 | relative viability ([2]; first compound 0.4 µM): 0.438 | relative viability ([2]; first compound 1.265 µM): 0.412

NCI-H2347
relative viability ([1]; first compound 0.01 µM): 0.264 | relative viability ([1]; first compound 0.03162 µM): 0.3 | relative viability ([1]; first compound 0.1 µM): 0.292 | relative viability ([1]; first compound 0.3162 µM): 0.245 | relative viability ([1]; first compound 1 µM): 0.278 | relative viability ([2]; first compound 0.04 µM): 0.289 | relative viability ([2]; first compound 0.1265 µM): 0.288 | relative viability ([2]; first compound 0.4 µM): 0.343 | relative viability ([2]; first compound 1.265 µM): 0.189

PC-14
relative viability ([1]; first compound 0.01 µM): 0.809 | relative viability ([1]; first compound 0.03162 µM): 0.8 | relative viability ([1]; first compound 0.1 µM): 0.817 | relative viability ([1]; first compound 0.3162 µM): 0.79 | relative viability ([1]; first compound 1 µM): 0.93 | relative viability ([2]; first compound 0.04 µM): 0.281 | relative viability ([2]; first compound 0.1265 µM): 0.0303 | relative viability ([2]; first compound 0.4 µM): 0.0906 | relative viability ([2]; first compound 1.265 µM): 0.0823

NCI-H1651
relative viability ([1]; first compound 0.01 µM): 0.817 | relative viability ([1]; first compound 0.03162 µM): 0.796 | relative viability ([1]; first compound 0.1 µM): 0.777 | relative viability ([1]; first compound 0.3162 µM): 0.849 | relative viability ([1]; first compound 1 µM): 0.847 | relative viability ([2]; first compound 0.04 µM): 0.309 | relative viability ([2]; first compound 0.1265 µM): 0.33 | relative viability ([2]; first compound 0.4 µM): 0.185 | relative viability ([2]; first compound 1.265 µM): 0.231

HARA
relative viability ([1]; first compound 0.01 µM): 0.649 | relative viability ([1]; first compound 0.03162 µM): 0.454 | relative viability ([1]; first compound 0.1 µM): 0.598 | relative viability ([1]; first compound 0.3162 µM): 0.918 | relative viability ([1]; first compound 1 µM): 0.441 | relative viability ([2]; first compound 0.04 µM): 0.297 | relative viability ([2]; first compound 0.1265 µM): 0.203 | relative viability ([2]; first compound 0.4 µM): 0.188 | relative viability ([2]; first compound 1.265 µM): 0.163

NCI-H1650
relative viability ([1]; first compound 0.01 µM): 0.684 | relative viability ([1]; first compound 0.03162 µM): 0.531 | relative viability ([1]; first compound 0.1 µM): 0.636 | relative viability ([1]; first compound 0.3162 µM): 0.547 | relative viability ([1]; first compound 1 µM): 0.623 | relative viability ([2]; first compound 0.04 µM): 0.313 | relative viability ([2]; first compound 0.1265 µM): 0.266 | relative viability ([2]; first compound 0.4 µM): 0.249 | relative viability ([2]; first compound 1.265 µM): 0.144

NCI-H1395
relative viability ([1]; first compound 0.01 µM): 0.98 | relative viability ([1]; first compound 0.03162 µM): 0.977 | relative viability ([1]; first compound 0.1 µM): 1.06 | relative viability ([1]; first compound 0.3162 µM): 1.04 | relative viability ([1]; first compound 1 µM): 1.19 | relative viability ([2]; first compound 0.04 µM): 0.374 | relative viability ([2]; first compound 0.1265 µM): 0.34 | relative viability ([2]; first compound 0.4 µM): 0.388 | relative viability ([2]; first compound 1.265 µM): 0.378

LU99A
relative viability ([1]; first compound 0.01 µM): 0.302 | relative viability ([1]; first compound 0.03162 µM): 0.596 | relative viability ([1]; first compound 0.1 µM): 0.548 | relative viability ([1]; first compound 0.3162 µM): 0.539 | relative viability ([1]; first compound 1 µM): 0.583 | relative viability ([2]; first compound 0.04 µM): 0.409 | relative viability ([2]; first compound 0.1265 µM): 0.257 | relative viability ([2]; first compound 0.4 µM): 0.219 | relative viability ([2]; first compound 1.265 µM): 0.197

NCI-H1355
relative viability ([1]; first compound 0.01 µM): 0.398 | relative viability ([1]; first compound 0.03162 µM): 0.473 | relative viability ([1]; first compound 0.1 µM): 0.463 | relative viability ([1]; first compound 0.3162 µM): 0.4 | relative viability ([1]; first compound 1 µM): 0.459 | relative viability ([2]; first compound 0.04 µM): 0.545 | relative viability ([2]; first compound 0.1265 µM): 0.488 | relative viability ([2]; first compound 0.4 µM): 0.434 | relative viability ([2]; first compound 1.265 µM): 0.421

HCC-78
relative viability ([1]; first compound 0.01 µM): 0.653 | relative viability ([1]; first compound 0.03162 µM): 0.671 | relative viability ([1]; first compound 0.1 µM): 0.701 | relative viability ([1]; first compound 1 µM): 0.735 | relative viability ([2]; first compound 0.04 µM): 0.421 | relative viability ([2]; first compound 0.1265 µM): 0.269 | relative viability ([2]; first compound 0.4 µM): 0.256 | relative viability ([2]; first compound 1.265 µM): 0.184

NCI-H1563
relative viability ([2]; first compound 0.04 µM): 0.404 | relative viability ([2]; first compound 0.1265 µM): 0.413 | relative viability ([2]; first compound 0.4 µM): 0.343 | relative viability ([2]; first compound 1.265 µM): 0.323

HCC-15
relative viability ([1]; first compound 0.01 µM): 0.377 | relative viability ([1]; first compound 0.03162 µM): 0.335 | relative viability ([1]; first compound 0.1 µM): 0.364 | relative viability ([1]; first compound 0.3162 µM): 0.406 | relative viability ([1]; first compound 1 µM): 0.376 | relative viability ([2]; first compound 0.04 µM): 0.458 | relative viability ([2]; first compound 0.1265 µM): 0.233 | relative viability ([2]; first compound 0.4 µM): 0.271 | relative viability ([2]; first compound 1.265 µM): 0.297

EKVX
relative viability ([1]; first compound 0.01 µM): 0.303 | relative viability ([1]; first compound 0.03162 µM): 0.414 | relative viability ([1]; first compound 0.1 µM): 0.344 | relative viability ([1]; first compound 0.3162 µM): 0.459 | relative viability ([1]; first compound 1 µM): 0.522 | relative viability ([2]; first compound 0.04 µM): 0.439 | relative viability ([2]; first compound 0.1265 µM): 0.4 | relative viability ([2]; first compound 0.4 µM): 0.32 | relative viability ([2]; first compound 1.265 µM): 0.294

NCI-H2087
relative viability ([1]; first compound 0.1 µM): 0.199 | relative viability ([1]; first compound 0.3162 µM): 0.182 | relative viability ([1]; first compound 1 µM): 0.182 | relative viability ([2]; first compound 0.04 µM): 0.727 | relative viability ([2]; first compound 0.1265 µM): 0.568 | relative viability ([2]; first compound 0.4 µM): 0.508 | relative viability ([2]; first compound 1.265 µM): 0.389

LK-2
relative viability ([1]; first compound 0.01 µM): 0.662 | relative viability ([1]; first compound 0.03162 µM): 0.71 | relative viability ([1]; first compound 0.1 µM): 0.696 | relative viability ([1]; first compound 0.3162 µM): 0.87 | relative viability ([1]; first compound 1 µM): 0.811 | relative viability ([2]; first compound 0.04 µM): 0.217 | relative viability ([2]; first compound 0.1265 µM): 0.184 | relative viability ([2]; first compound 0.4 µM): 0.155 | relative viability ([2]; first compound 1.265 µM): 0.229

NCI-H1437
relative viability ([1]; first compound 0.01 µM): 0.587 | relative viability ([1]; first compound 0.03162 µM): 0.471 | relative viability ([1]; first compound 0.1 µM): 0.529 | relative viability ([1]; first compound 0.3162 µM): 0.492 | relative viability ([1]; first compound 1 µM): 0.518 | relative viability ([2]; first compound 0.04 µM): 0.218 | relative viability ([2]; first compound 0.1265 µM): 0.236 | relative viability ([2]; first compound 0.4 µM): 0.223 | relative viability ([2]; first compound 1.265 µM): 0.125

COR-L23
relative viability ([1]; first compound 0.01 µM): 0.352 | relative viability ([1]; first compound 0.03162 µM): 0.654 | relative viability ([1]; first compound 0.1 µM): 0.602 | relative viability ([1]; first compound 0.3162 µM): 0.708 | relative viability ([1]; first compound 1 µM): 0.74 | relative viability ([2]; first compound 0.04 µM): 0.433 | relative viability ([2]; first compound 0.1265 µM): 0.334 | relative viability ([2]; first compound 0.4 µM): 0.214 | relative viability ([2]; first compound 1.265 µM): 0.219

ABC-1
relative viability ([2]; first compound 0.04 µM): 0.51 | relative viability ([2]; first compound 0.1265 µM): 0.395 | relative viability ([2]; first compound 0.4 µM): 0.366 | relative viability ([2]; first compound 1.265 µM): 0.204
